In patent publication US5939578A, “Vasomolol: an ultra short-acting and vasodilatory vanilloid type β - adrenoceptor antagonist” (Lin; Tong-Ho, priority 1996, dated 1999):

Tests used:
[1] = target: T1, β1-adrenoceptor (right atrium) (Cavia porcellus, UniProt H0W3H1); test: β-adrenoceptor antagonism in isolated spontaneously-beating right atria (isoproterenol chronotropic response); parameters: species or system guinea-pig
T1 construct: Spontaneously-beating right atria were removed from the hearts and mounted in a 10 ml organ bath; from tissue; host or cells: isolated guinea-pig (Hartley) right and left atria
T1 sequence (H0W3H1 1-470): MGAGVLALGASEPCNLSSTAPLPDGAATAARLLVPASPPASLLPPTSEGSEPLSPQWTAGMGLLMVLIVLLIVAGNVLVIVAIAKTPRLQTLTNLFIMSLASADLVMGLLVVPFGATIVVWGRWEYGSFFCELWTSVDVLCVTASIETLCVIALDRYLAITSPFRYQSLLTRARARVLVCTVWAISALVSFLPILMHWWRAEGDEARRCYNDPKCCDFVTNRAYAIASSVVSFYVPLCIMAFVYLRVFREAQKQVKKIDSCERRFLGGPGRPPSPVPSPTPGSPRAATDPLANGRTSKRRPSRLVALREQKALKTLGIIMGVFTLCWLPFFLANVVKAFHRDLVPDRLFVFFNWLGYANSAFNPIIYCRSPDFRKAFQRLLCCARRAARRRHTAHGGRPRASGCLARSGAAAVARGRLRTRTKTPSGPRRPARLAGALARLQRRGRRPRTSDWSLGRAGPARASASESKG
Procedure: Guinea-pigs (Hartley) of either sex weighing between 350 and 500 g were sacrificed by a blow on the head. Their hearts and trachea were quickly excised and excess tissue was removed. […] The atrial strip was prestretched to a baseline tension of 0.2 g. […] The atria were then allowed a 30-60 min washout period to estabilize, after which time various concentrations of the test compound were incubated with the atrium 30 min before the cumulative concentrations of the (-) isoproterenol ([…]) was added. All responses to (-) isoproterenol were calculated as a percentage of the maximum control response to (-) isoproterenol.
(§1) The pA2 values and slope values were calculated from individual Schild plots by regression analysis. The β1 /β2 -selectivity ratio was obtained from the antilogarithm of the difference between the mean pA2 values obtained from right atrium and trachea.
(§2) Mean cumulative concentration-response curves are shown for the positive chronotropic responses to (-) isoproterenol in spontaneously-beating guinea-pig right atria, positive inotropic responses to (-) isoproterenol in electrically driven guinea-pig left atria, and relaxant effects to (-) isoproterenol in guinea-pig spontaneous tone tracheal strips in the absence (.smallcircle.) or presence of 0.01 (.circle-solid.), 0.1, 1 (.tangle-soliddn.) or 10 (.diamond.) μM of vasomolol.

[2] = target: T2, β2-adrenoceptor (trachea) (Cavia porcellus, UniProt Q8K4Z4); test: β-adrenoceptor antagonism in isolated tracheal strips (isoproterenol-induced relaxation); parameters: species or system guinea-pig
T2 construct: Guinea-pig trachea were cleaned of extraneous connective tissue and cut into spiral strips; from tissue; host or cells: isolated guinea-pig tracheal spiral strips
T2 sequence (Q8K4Z4 whole entry): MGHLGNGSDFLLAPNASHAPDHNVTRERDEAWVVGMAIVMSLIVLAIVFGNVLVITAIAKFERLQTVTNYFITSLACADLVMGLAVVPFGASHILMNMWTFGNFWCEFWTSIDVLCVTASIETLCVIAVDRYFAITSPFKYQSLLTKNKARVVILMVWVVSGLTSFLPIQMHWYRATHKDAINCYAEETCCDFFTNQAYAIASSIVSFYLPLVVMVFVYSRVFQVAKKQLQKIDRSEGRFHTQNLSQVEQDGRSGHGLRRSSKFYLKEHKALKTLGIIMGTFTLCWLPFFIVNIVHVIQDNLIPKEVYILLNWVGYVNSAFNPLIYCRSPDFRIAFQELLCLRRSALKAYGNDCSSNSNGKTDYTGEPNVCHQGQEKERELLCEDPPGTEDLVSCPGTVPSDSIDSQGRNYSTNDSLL
Procedure: Guinea-pig trachea were cleaned of extraneous connective tissue and cut into spiral strips as described in Gen. […] This spiral strip was cut into two equal segments and both were suspended in organ baths filled with 20 ml of Kreb's solution. […] An initial basal tension of 2 g was applied to each tracheal strip and the tissue was allowed to gain tone spontaneously until a steady level was reached (60 min).
as §1, §2

[3] = system: right atria and left atrial strips; test: Intrinsic sympathomimetic activity in isolated right atria and left atrial strips; parameters: species or system reserpinized guinea-pigs; settings: for intrinsic sympathomimetic activity: effect on heart rate and contractility: cumulative concentrations, in words
Procedure: Animals were pretreated with reserpine (10 mg/kg, i.p.) 24 hr prior to the experiment described in Naunyn-Schmiedeberg's Arch. […] All preparations including isolated right atria and left atria strips were studied.
All measurements are expressed as mean percentages of the control frequency or force in the same preparation.

[4] = Blood pressure and heart rate responses to intravenous injection in anesthetized rats; type: in vivo, pentobarbital-anesthetized normotensive Wistar rats
Procedure: Measurement of blood pressure and heart rate
The method reported in Gen.
(§3) vasomolol (0.5, 1.0, 3.0 mg/kg)

[5] = system: isolated rat thoracic aorta; test: Inhibition of phenylephrine and high K+ induced contractions of isolated rat aorta (vasodilatation effect)
Procedure: Male rats weighing 200-250 g were sacrificed by a blow on the head and the thoracic aorta was removed and cleaned of all loosely adhering tissue. The thoracic aorta was cut from an area close to the aortic arch, immediately placed in a physiological solution, and trimmed to 2-4 mm in length as described in Gen. Pharmacol. 24, 1425, 1993 (by inventor group) The rings were then mounted with a tension of 1.0 g between parallel hooks in a 10 ml organ bath containing a physiological solution(mM):NaCl 112; KCl5.0; NaHCO3 25; KH2 PO4 1.0; CaCl2 1.25; MgSO4 1.2; and glucose 11.5]. The bath was maintained at 37° C. and aerated with a mixture of 95% O2 and 5% CO2. The tension of the aortic rings were recorded isometrically by means of a force displacement transducer (UGO, Model 7004, Italy) connected to an amplifier (COULBOURN, Model S72-25, U.S.A.). Before the start of the experiments, all preparations were allowed to equilibrate for 1.0 hr in the physiologic solution.
Effects of vasomolol on (A) phenylephrine(10^-5 M) and (B) high K^+ (75 mM) induced contraction in rat thoracic aorta.

[6] = target: T3, β1-adrenoceptor (left atrium) (Cavia porcellus, UniProt H0W3H1); test: β-adrenoceptor antagonism in isolated electrically driven left atria (isoproterenol inotropic response); parameters: species or system guinea-pig
T3 construct: Spontaneously-beating right atria were removed from the hearts and mounted in a 10 ml organ bath; from tissue; host or cells: isolated guinea-pig (Hartley) right and left atria
T3 sequence (H0W3H1 1-470): as the sequence (H0W3H1 1-470) above
Procedure: In the isolated left atria, quiescent left atria were dissected free of connective tissue and mounted in organ chambers under a resting tension of 0.5 g. […] Cumulative concentration-response curves to the positive inotropic effects of (-) isoproterenol were obtained in the absence and presence of various concentrations of a test compound. An incubation time of 30 min was allowed for the test compound. Data were calculated as a percentage of the increase in force induced by (-) isoproterenol.
as §1, §2

[7] = system: β1/β2-adrenoceptors; test: β1/β2-selectivity from mean pA2 values of right atria and trachea; parameters: species or system guinea-pig
Procedure: as §1, with “The β1 /β2 -selectivity ratio was obtained from the antilogarithm of the difference between the mean pA2 values obtained from the right atria and trachea as described in J. Pharm. […] The pA2” for “The pA2”

[8] = system: β-adrenergic receptor; test: β-blockade and duration of action: inhibition of (-)isoproterenol-induced tachycardia during and after infusion; type: in vivo, pentobarbital-anesthetized rats
Procedure: Vasomolol (100 μg/kg/min) was infused consecutively into a femoral vein in pentobarbital-anesthetized rats. Each perfusion was maintained for 60 min. Before and during the infusion of vasomolol and esmolol, at 10-min intervals, bolus i.v. injections of (-) isoproterenol (0.5. μg/kg) were administered to assess the level of β-blockade. (-) lsoproterenol injections were also continued for 60 min. after termination of the highest dose of vasomolol and esmolol to assess the duration of β-blockade reported in J. Pharm. Exp. Ther. 237, 912, 1986 (by Quon, C. Y. et al.). The percentage of inhibition of the (-)isoproterenol-induced tachycardia parameter of β-blockade--was calculated during and after infusions of vasomolol.
isoproterenol (0.5 μg/kg)
as §3

[9] = mean ± SEM, six to eight experiments, 30 min
[10] = 0.5 mg/kg i.v., mean ± SEM (n = 8)
[11] = 1.0 mg/kg i.v., mean ± SEM (n = 8)
[12] = 3.0 mg/kg i.v., mean ± SEM (n = 8)

pA2 value, β1, right atrium [1, 9]: 7.41 ± 0.05 | Schild slope, right atrium ([1]; regression of Schild plot): 0.90 ± 0.04 | relative β2-adrenoceptor blocking potency ([2]; in words): less potent than propranolol | pA2 value, β2, trachea ([2]; mean ± SEM, six to eight experiments, 60 min): 5.81 ± 0.11 | antagonism of (-) isoproterenol-induced relaxation ([2]; printed 5×10^8 -10^6 M, tracheal strips): competitively antagonized | Schild slope, trachea ([2]; regression of Schild plot): 0.81 ± 0.06 | pA2 value, β1, left atrium [6, 9]: 7.44 ± 0.03 | Schild slope, left atrium ([6]; regression of Schild plot): 0.89 ± 0.02
SMILES: CCOC(=O)c1ccc(OCC(O)CNC(C)(C)C)c(OC)c1 (stereo not shown) [Vasomolol]
antagonism of isoproterenol-induced positive chronotropic actions ([1]; 5×10^-8 -10^-6 M, right atrial strips): caused a dose-dependent parallel shift to the right of the isoproterenol concentration-response curves | intrinsic sympathomimetic activity: effect on heart rate and contractility [3]: did not induce an increase in the heart rate or contractility | intrinsic sympathomimetic activity: effect on heart rate and contractility ([3]; listed as vasomolol): Lack of intrinsic sympathomimetic activity | concentration causing negative inotropic and chronotropic effects ([3]; right atria rate and left atria tension): ≥ 10^-5 M | BP change [4, 10]: -4.5 ± 1.4 mm Hg | HR change [4, 10]: -20.0 ± 2.3 bpm | bradycardia duration [4, 10]: 3.5 ± 0.7 min | BP change [4, 11]: -6.5 ± 1.9 mm Hg | HR change [4, 11]: -34.5 ± 2.8 bpm | bradycardia duration [4, 11]: 7.2 ± 0.8 min | BP change [4, 12]: -10.8 ± 1.2 mm Hg | HR change [4, 12]: -50.0 ± 3.4 bpm | bradycardia duration [4, 12]: 8.0 ± 1.2 min | bradycardia duration ([4]; i.v. injection): less than 10 min | blood pressure and heart rate effect ([4]; i.v. injection 0.5, 1.0, 3.0 mg/kg, in words): produced a hypotensive action and a decrease in heart rate | inhibition of high K+ induced contraction ([5]; K+ 75 mM, vasomolol printed 10^6 -10^5 M): significantly inhibited | relaxation sensitivity, high K+ versus phenylephrine ([5]; in words): more sensitive in high K^+ than in phenylephrine-contracted aorta preparations | inhibition of phenylephrine-induced contraction ([5]; phenylephrine printed 10^5 M, vasomolol printed 10^6 -10^5 M): significantly inhibited | antagonism of isoproterenol-induced positive inotropic responses ([6]; electrically driven left atrial strips): produced dose-dependent rightward shifts of the cumulative concentration-response curves to isoproterenol | relative β-adrenoceptor blocking potency ([6]; guinea-pig atria, in words): more potent than atenolol, slightly more potent than metoprolol, and was less potent than propranolol | β1/β2 selectivity in words [7]: selective for β1-adrenoceptors | β1/β2-selectivity ratio ([7]; antilogarithm of difference between mean pA2 of right atrium and trachea): 39.8 | potency on right atria versus trachea ([7]; from mean pA2 values): 39.8 times | onset of β-blockade to steady-state level ([8]; after initiating each infusion rate, isoproterenol 0.5 μg/kg): ≤ 10 min | time required for 50% recovery ([8]; after termination of infusion, mean±S.E.M.): 9.5 ± 1.0 min | disappearance of β-blockade after termination of infusion ([8]; in words): disappeared rapidly after the termination of infusion
